Measurements published in patent publication US10696707B2, “Polyene macrolide derivative” (Shionogi & Co., Ltd., priority 2014, dated 2020).
≈ marks a conversion by molar mass, not a printed value.

What was measured:
Kim1, Timp1, and Lcn2 = experiment: Test Example 4: nephrotoxicity, kidney marker gene expression by quantitative RT-PCR after intravenous administration; assay type: in vivo; conditions: mice, nephrotoxicity positive when ΔΔCt of two-third of target genes (Kim1, Timp1, Lcn2) >3
Procedure: (§1) The expression level of marker genes for nephrotoxicity was determined by quantitative RT-PCR to evaluate nephrotoxicity of the compound of the present invention. The compound of the present invention or vehicle was intravenously administered to mice and their kidneys were isolated. After removal of the kidney capsule, all of the kidneys were sliced into two equal halves, and stored at −80° C. in RNAlater® (Ambion) until use. Samples were disrupted and homogenized in QIAzol Lysis Reagent with TissueLyser (Qiagen), and total RNA was extracted using an RNeasy® Mini kit (Qiagen). Total RNA concentrations were determined to read OD260 by absorptiometer.
(§2) The level of expression of the following target genes was determined using one-step quantitative real-time PCR: Kim1, Timp1, and Lcn2. Total RNA (80 ng/2 μL) was used as the template, and TaqMan Gene Expression Assays (Applied Biosystems, for Haver1 (Kim1), assay ID: Mm00506686_m1; Timp1, Mm01341361_m1; Lcn2, Mm01324470_m1) or TaqMan Endogenous Controls (Gapdh, predesigned assay reagent supplied by ABI, Applied Biosystems) were employed as gene-specific probe and primer sets. Quantitative RT-PCR was performed using a QuantiTect™ Probe RT-PCR kit (Qiagen), and transcript levels were quantitated with an Applied Biosystems 7900HT Fast Real Time PCR System (Applied Biosystems). Reverse transcription and amplification conditions were set as follows: 50° C. for 30 min, 95° C. for 15 min, followed by 40 cycles at 95° C. for 15 s and 60° C. for 1 min. The resulting cycle threshold (Ct) value was processed based on the comparative Ct method (ΔΔCt Method), where Gapdh was used as an endogenous reference gene to normalize the expression level of target genes.
(§3) The ΔCt was calculated as follows: Ct, Gapdh−Ct, target gene.
(§4) The ΔΔCt was calculated as follows: ΔCt, treated sample−ΔCt, average of vehicle control sample.
(§5) Higher ΔΔCt values indicate higher expression rates of the target gene and therefore high risk for nephrotoxicity.

[1] = test system: red blood cells (5% RBC suspension); experiment: Test Example 2-1: in vitro hemolytic activity test (upper limit 50, 80, 100 or 200 μmol/L); assay type: cell-based; conditions: hemolysis method 200 (upper concentration 200 μmol/L); 5% RBC suspension, 37° C., one hour; read-out: hemolysis IC50
Procedure, shortened: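 A 5% suspension of washed red cells in Earle's medium was exposed to doubling dilutions of compound from DMSO, with maxima of 50, 80, 100 or 200 μmol/L final, for 1 h at 37 °C, 5% CO2. Supernatant absorbance at 540 nm was normalised to water-lysed cells. IC50 is the concentration giving 50% hemolysis; ">" values exceed the top concentration.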

A. flavus ATCC204304 = experiment: Antifungal activity test, MIC by broth microdilution (CLSI M38-A2); assay type: cell-based; conditions: Aspergillus flavus, ATCC204304
Procedure, shortened: (§6)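 CLSI broth microdilution in RPMI 1640 with 2% glucose, 0.165 mol/L MOPS, pH 7.0; two-fold DMSO dilutions. MIC = lowest concentration giving 100% inhibition versus growth control.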

A. fumigatus ATCC204305 = experiment: as above; assay type: cell-based; conditions: Aspergillus fumigatus, ATCC204305
Procedure, shortened: as §6

C. albicans ATCC90028 = experiment: Antifungal activity test, MIC by broth microdilution (CLSI M27-A3); assay type: cell-based; conditions: Candida albicans, ATCC90028
Procedure, shortened: as §6

HepG2 cells = assay type: cell-based; conditions: human, 71 h
Procedure: The Cytotoxicith of the compounds of the present invention was evaluated by measuting cell numbers automatically using the cell image analyzer, Toxinsight® (Thermofisher Scientific).
HepG2 cells were seeded in 384-well black plates (100000 cells/mL) and allowed to attach for approximately 24 hours at 37° C. in humidified CO2 incubator. Test compounds and positive control (Fungizone®) were initially dissolved as concentrated 20 mmol/L stock solutions in DMSO and added to culture medium, to the final concentration; 1.6, 3.1, 6.3, 12.5, 25, 50, 100 μmol/L. The negative control well was treated with DMSO alone. After exposure of each test compound for approximately 71 hours, each well were added with Hoechst 33342, for staining of nuclei, diluted in D-PBS to the final concentration; 1 μg/mL, and after that, fixed with 4% paraformaldehyde. The cell number, stained with Hoechst 33342, was counted by Toxinsight® (Thermofisher Scientific) in each well. The mean value of cell number and the standard deviation (SD) was calculated (N=4).

[2] = Test Example 4: nephrotoxicity, kidney marker gene expression by quantitative RT-PCR after intravenous administration; assay type: in vivo; conditions: mouse, kidney, mice, nephrotoxicity positive when ΔΔCt of two-third of target genes (Kim1, Timp1, Lcn2) >3
Procedure: as §1, §2, §3, §4, §5

[3] = test system: red blood cells (5% RBC suspension); experiment: Test Example 2-2: in vitro hemolytic activity test (upper limit 200 μmol/L); assay type: cell-based; conditions: Erythrocyte, read-out: hemolysis IC50
Procedure, shortened: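 Washed defibrinated blood cells suspended at 5% in phenol-red-free Earle's medium, exposed to DMSO-dissolved compounds (top final 200 μmol/L, doubling dilutions) for 1 h at 37° C, 5% CO2. Supernatant A540 read; % hemolysis relative to water-lysed blood and DMSO control, IC50 derived, upper limit 200 μmol/L.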

## C[C@@H]1[C@H](O)[C@@H](C)/C=C/C=C/C=C/C=C/C=C/C=C/C=C/[C@H](O[C@@H]2O[C@H](C)[C@@H](O)[C@H](N)[C@@H]2O)C[C@@H]2O[C@](O)(C[C@@H](O)C[C@@H](O)[C@H](O)CC[C@@H](O)C[C@@H](O)CC(=O)O[C@H]1C)C[C@H](O)[C@H]2NC(=O)N/N=C/[C@H](O)CO [I-235]
Kim1, Timp1, and Lcn2
  nephrotoxicity MTD: >24 mg/kg

## C[C@@H]1[C@H](O)[C@@H](C)/C=C/C=C/C=C/C=C/C=C/C=C/C=C/[C@H](O[C@@H]2O[C@H](C)[C@@H](O)[C@H](N)[C@@H]2O)C[C@@H]2O[C@](O)(C[C@@H](O)C[C@@H](O)[C@H](O)CC[C@@H](O)C[C@@H](O)CC(=O)O[C@H]1C)C[C@H](O)[C@H]2NC(=O)NC1(C#N)CC1 [I-105]
[1]
  IC50: > 200 µM
Kim1, Timp1, and Lcn2
  nephrotoxicity MTD: >24 mg/kg

## C[C@@H]1[C@H](O)[C@@H](C)/C=C/C=C/C=C/C=C/C=C/C=C/C=C/[C@H](O[C@@H]2O[C@H](C)[C@@H](O)[C@H](N)[C@@H]2O)C[C@@H]2O[C@](O)(C[C@@H](O)C[C@@H](O)[C@H](O)CC[C@@H](O)C[C@@H](O)CC(=O)O[C@H]1C)C[C@H](O)[C@H]2NC(=O)NCCN [AmBAU, reference compound]
A. flavus ATCC204304
  MIC: 1 µg/mL (≈ 1.02 µM)
A. fumigatus ATCC204305
  MIC: 1 µg/mL (≈ 1.02 µM)
C. albicans ATCC90028
  MIC: 0.5 µg/mL (≈ 0.51 µM)
HepG2 cells
  cytotoxicity (lowest cytotoxicity concentration): 51.0 µmol/L
[2]
  MTD: 12 mg/kg
[3]
  IC50: 58 µM
